Data: US6681132B1, “Sodium magnetic reasonance imaging used in diagnosing tumors and assessing response to treatment” (The Trustees of Columbia University in the City of New York, priority 1999, dated 2004)

What was measured:
Assay type in all cases: cell-based, human
DU145 cells = test: APO-BRDU endlabelling of DNA fragmentation, flow cytometry, DU145; settings: for time course of DNA fragmentation: DU 145, 24-hr sample point
Method: Chemotherapy, cellular apoptosis, ion activity Cells were cultured and drugs added to media for various times. Fluorescent endlabelling techniques for flow cytometry have been described in detail (23, 97). […] TdT attaches BrdU to DNA ends, following which fluorescent antibodies for BrdU tagged the DNA fragments. Propidium iodide (PI) gives cell cycle position.
At the end of the treatment period, cells are trypsinized, resuspended in media, resuspended in PBS, resuspended in iced cold methanol free formaldehyde (1% in PBS) for 15 min, resuspended in 70% ethanol and stored at −20° C. until all samples from a given experiment are ready to run (19, 23).
(§1) Fixed cells are labeled following kit instructions (two washes with kit buffer, overnight endlabelling, two resuspensions in a rinse buffer, exposure to fluorescent antibody and treatment with propidium iodide and RNAase. Flow cytometry is performed on a Becton/Dickenson FACStar II. Individual fluorescence intensity values for 10,000 cells are obtained for each sample.
(§2) To specifically assay DNA fragmentation, a downstream response to apoptosis, uses of a terminal deoxynucleotidyl transferase labeling approach whereby fluorescent moieties are enzymatically attached to all DNA fragment ends.

PC3 cells = test: Free [Nai] with SBFI/AM in 96 well plates, fluorescent plate reader; settings: for earliest time of increase of mean SBFI ratio ([Nai]): 10 nM taxotere or 10 μg/ml VP-16 etoposide
Excerpt: For ion measurements (panels C & D), plates were run on a Fluoroskan II fluorescent plate reader (Titertek) using Titertek's computer Interface. Fura II loaded wells (panel D) had measured fluorescence intensities between 15,000 and 25,000 units whereby dye free wells had values ˜100 and 500. The wells with SBFI/AM loaded cells (panel C) had intensities between 4,000 and 9,000 units. Two excitation values were used for each well measurement. Ratios were derived by dividing fluorescent intensity at 345 nm excitation by that at 390 nm, both with a 508 nm mission filter. For all plates, dye free wells were examined for both control and drug treated cells, and served as background values for each wavelength. For [Cai] experiments a second means of determining background fluorescence, which gave statistically similar results, was exposure to 6 mM MnCl2 following the initial measurement. […] Backgrounds were subtracted from each cell in the protocol grouping prior to the ratio being derived. These individual well to well ratios for each protocol grouping were averaqed and used in the statistical tests which determined whether the changes in [Nai] and [Cai] following drug application were significant. Each value plotted below consisted of at least n=5 well ratios. As an additional control, we induced an acute [Cai] response in some control wells for each plate by adding thapsigargin after the initial measurement. Rapid and large [Cai] changes were detected in each case. To derive concentration values from the fluorescence readings, different, but standard approaches (26, 73), were taken with each dye. Both panels C and D show elevation of ion activity developing within 2-6 hours, and in the most part continuing for 18-24 hours.
b. SBFI/AM—This dual excitation wavelength dye is used in a fluorescent plate scanner. With SBFI/AM, we can treat cells cultured in black (non fluorescent) 96 well plates and measure average [Nai] of the cells in each well. [Nai] is calculated using ratio method and in situ calibration—thus ionophores (monensin and gramidicidin) eliminate the transmembrane gradient so that [Nai] can be altered by changing [Nao].
Comparison of the latency of these apoptotic markers with the ionic responses induced by taxotere and VP-16 at the same doses (10 nM and 10 ug/ml, respectively). […] Since its dual wavelength ultraviolet excitation requirement is impractical for flow cytometry, adherent cells were examined in 96 well culture plates using a fluorescent plate reader (Titertek, Fluoroskan II). […] The ratios of emission intensity at the two excitation wavelengths were calculated for each well, and the average ratio plotted for each time point (FIG. 3.C.; left vertical axis). […]

PC3 cell = test: APO-BRDU endlabelling of DNA fragmentation, flow cytometry, PC3
Method: At the end of the treatment period, cells are trypsinized, resuspended in media, resuspended in PBS, resuspended in iced cold methanol free formaldehyde (1% in PBS) for 15 min, resuspended in 70% ethanol and stored at −20° C. until all samples from a given experiment are ready to run (19, 23). Using a very powerful endlabelling technique (APO-BRDU, Phoenix Flow Systems, California) which gives a dynamic range of fluorescence intensities of up to 1000 fold comparing control cells to cells with advanced DNA fragmentation. Results have been confirmed using positive and negative controls provided by Phoenix Flow Systems, camptothecin treated PC3 cells, and a SNAP treated myocyte line.
as §1
as §2, with “ends. (FIG. 3a) The technique which was used, has a dynamic range of approximately ×1000 (FIG. 2). […]” for “ends.”

## CC(=O)O[C@@]12CO[C@@H]1C[C@H](O)[C@@]1(C)C(=O)[C@H](O)C3=C(C)[C@@H](OC(=O)[C@H](O)[C@@H](NC(=O)OC(C)(C)C)c4ccccc4)C[C@@](O)([C@@H](OC(=O)c4ccccc4)[C@H]21)C3(C)C [taxotere]
DU145 cells
  time course of DNA fragmentation: response peaks and subsides
PC3 cells
  earliest time of increase of mean SBFI ratio ([Nai]): 2 h
PC3 cells; 10 nMol/L in tissue culture
  persistence of ionic elevations ([Nai], [Cai]): at least 24 hrs
  time by which ionic elevations ([Nai], [Cai]) were significant: ≤ 6 h
PC3 cell
  time course of DNA fragmentation: continues to develop beyond the 24-hr sample point

## COc1cc([C@@H]2c3cc4c(cc3[C@@H](O[C@@H]3O[C@@H]5CO[C@@H](C)O[C@H]5[C@H](O)[C@H]3O)[C@H]3COC(=O)[C@H]23)OCO4)cc(OC)c1O [VP-16, etoposide]
DU145 cells
  time course of DNA fragmentation: response peaks and subsides
DU145 cells; Du145, 8 hrs
  endlabelling response: No response
DU145 cells; Du145, 24 hrs exposure
  increase of endlabelling intensity (DNA fragmentation): 100 fold
PC3 cells
  earliest time of increase of mean SBFI ratio ([Nai]): 2 h
PC3 cell
  time course of DNA fragmentation: continues to develop beyond the 24-hr sample point
